The text below walks through data of ChEMBL document CHEMBL3045345, “Computer simulation of the in vitro and in vivo anti-inflammatory activities of dihydropyrimidines acid derivatives through the inhibition of cyclooxygenase-2” (Med Chem Res, 2013).

For experiment [1], the system named is Rattus norvegicus. The experiment is described as follows: Anti-inflammatory activity in Rattus norvegicus (rat) assessed as inhibition of carrageenan-induced paw edema at 100 mg/kg, po treated 60 min prior to carrageenan injection measured after 1 to 5 hr. It is filed as functional. A general note: Carrageenan injected into the paw causes an acute inflammation.

Experiment [2] relates to Rattus norvegicus. The experiment is described as follows: Anti-inflammatory activity in Rattus norvegicus (rat) assessed as inhibition of carrageenan-induced paw edema at 100 mg/kg, po treated 60 min prior to carrageenan injection measured after 1 to 5 hr relative to ibuprofen. It is filed as functional.
The target of experiment [3] is T1, Prostaglandin G/H synthase 1 (Ovis aries, UniProt P05979).
T1 sequence (P05979 whole entry): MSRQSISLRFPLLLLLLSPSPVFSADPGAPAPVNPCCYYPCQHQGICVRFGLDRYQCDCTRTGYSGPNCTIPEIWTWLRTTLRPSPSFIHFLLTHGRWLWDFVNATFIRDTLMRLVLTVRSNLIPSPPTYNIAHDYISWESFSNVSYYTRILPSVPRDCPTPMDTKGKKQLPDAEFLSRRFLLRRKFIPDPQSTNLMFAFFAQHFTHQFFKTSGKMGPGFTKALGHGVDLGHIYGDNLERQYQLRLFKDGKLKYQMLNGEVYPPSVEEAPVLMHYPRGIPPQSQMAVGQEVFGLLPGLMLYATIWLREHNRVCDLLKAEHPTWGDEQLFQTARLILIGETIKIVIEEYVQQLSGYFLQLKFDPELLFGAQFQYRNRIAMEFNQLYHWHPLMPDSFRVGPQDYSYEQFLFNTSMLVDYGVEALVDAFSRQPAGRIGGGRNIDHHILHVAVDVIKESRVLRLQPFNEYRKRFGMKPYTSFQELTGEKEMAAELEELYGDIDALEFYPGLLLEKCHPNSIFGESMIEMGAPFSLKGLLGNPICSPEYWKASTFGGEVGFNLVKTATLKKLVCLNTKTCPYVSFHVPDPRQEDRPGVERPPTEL
The experiment is described as follows: Inhibition of Ovis aries (sheep) COX-1 assessed as decrease in PGF2a production from PGH2 upon reduction with stannous chloride using arachidonic acid as substrate pre-incubated with enzyme for 5 min prior to substrate addition by enzyme immunoassay.

As a reminder, the inhibition in vivo is the relative decrease from the control value, in per cent. What is called IC50 is the concentration at which inhibition is half-maximal.

Structures are written as SMILES. Calls of active or inactive are those of the source. The rule behind the calls is not given here.

On to `CN(C)c1ccc(/C=C/C2=C(C(=O)O)C(c3ccc(N(C)C)cc3)NC(=O)N2)cc1` (centres undefined), for which the inhibition entry in experiment [1] is “inactive”. On the same count and under the same terms, under `O=C(O)C1=C(/C=C/c2ccccc2)NC(=S)NC1c1ccccc1` (centres undefined) stands “inactive”; under `O=C1NC(/C=C/c2ccc([N+](=O)[O-])cc2)=C(C(=O)O)C(c2ccc([N+](=O)[O-])cc2)N1` (centres undefined), “inactive”.

Consider `COc1ccc(/C=C/C2=C(C(=O)O)C(c3ccc(OC)cc3)NC(=O)N2)cc1` (centres undefined), for which the inhibition in vivo at 100 mg/kg in experiment [1] was found to be 23%; in experiment [2], 41%. In addition, in experiment [3], the IC50 came out at 14.7 µM. In the case of `CN(C)c1ccc(/C=C/C2=C(C(=O)O)C(c3ccc(N(C)C)cc3)NC(=S)N2)cc1` (centres undefined), the inhibition result in experiment [1] was “inactive”. On to `O=C1NC(/C=C/c2ccccc2)=C(C(=O)O)C(c2ccccc2)N1` (centres undefined), for which the inhibition in vivo at 100 mg/kg in experiment [1] stood at 16%. On the same count and under the same terms, under `CC(C)Cc1ccc(C(C)C(=O)O)cc1` (centres undefined) [IBUPROFEN] stands 56%. On to `COc1ccc(/C=C/C2=C(C(=O)O)C(c3ccc(OC)cc3)NC(=S)N2)cc1` (centres undefined), for which the inhibition in vivo at 100 mg/kg in experiment [1] and in experiment [2] was 38% throughout. Further, in experiment [3], the IC50 amounted to 14.3 µM.

As for `O=C(O)C1=C(/C=C/c2ccc(O)cc2)NC(=S)NC1c1ccc(O)cc1` (centres undefined), in experiment [1], the inhibition result was “inactive”. Take `O=C1NC(/C=C/c2ccc(O)cc2)=C(C(=O)O)C(c2ccc(O)cc2)N1` (centres undefined): the inhibition in vivo at 100 mg/kg in experiment [1] turned out to be 12%.
